Consider 24 compounds from patent US20080045580A1, “Novel Isoxazole Compounds Having Ppar Agonist Activity” (DR REDDY'S LABORATORIES LIMITED, priority 2004, published 2008).

One data set deals with T1, human PPARα (Homo sapiens, UniProt Q07869).
T1 construct: expressed in transfected cells; host or cells: HEK-293
T1 sequence (Q07869 239-466 limits assumed): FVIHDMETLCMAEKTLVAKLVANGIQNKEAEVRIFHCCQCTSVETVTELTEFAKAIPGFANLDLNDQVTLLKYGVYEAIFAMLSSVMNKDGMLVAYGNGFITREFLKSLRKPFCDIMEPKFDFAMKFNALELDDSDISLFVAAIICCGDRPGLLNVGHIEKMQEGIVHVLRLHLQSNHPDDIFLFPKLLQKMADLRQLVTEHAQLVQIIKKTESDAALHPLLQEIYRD
The data set can be described thus: in vitro PPARα transactivation (GAL4-LBD luciferase reporter in HEK-293 cells). It is filed as cell-based. From the text: Generally, suitable PPAR agonists are believed to be useful for attenuating and/or treatment of diabetic dyslipidemia, metabolic syndrome, diabetes, cardiovascular disease, and obesity. The following procedure was used for in vitro determination of PPARα, γ and δ transactivation.
(§1) The ligand binding domain of human PPARγ1, PPARα or PPARδ was fused to the C-terminal end of DNA binding domain of yeast transcription factor GAL4 in eukaryotic expression vector. Using SuperFect (Qiagen), HEK-293 cells were transfected with this plasmid and a reporter plasmid harboring the luciferase gene driven under the control of 5 tandem GLA4 response elements. In some experiments, pAdVantage vector (Promega) was used to enhance luciferase expression. Compounds were added approximately 48 hours after transfection at various concentrations and incubated overnight. The cells were lysed and the luciferase activity was measured using the LucLite kit in Top Count (Packard). Luciferase activity was expressed as fold activation relative to untreated cells in the same experiment.
In general terms: A reporter such as luciferase makes a cellular process visible.

The target of a further data set is T2, human PPARγ1 (Homo sapiens, UniProt P37231).
T2 construct: expressed in transfected cells; host or cells: HEK-293
T2 sequence (P37231 238-503 limits assumed): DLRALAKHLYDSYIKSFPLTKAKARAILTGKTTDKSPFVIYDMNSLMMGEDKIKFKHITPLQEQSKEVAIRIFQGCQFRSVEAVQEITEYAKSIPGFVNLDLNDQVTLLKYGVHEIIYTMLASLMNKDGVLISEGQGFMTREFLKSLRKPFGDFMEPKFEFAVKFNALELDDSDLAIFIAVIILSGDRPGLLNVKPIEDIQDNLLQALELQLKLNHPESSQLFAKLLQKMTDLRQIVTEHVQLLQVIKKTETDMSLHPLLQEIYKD
The data set can be described thus: in vitro PPARγ transactivation (GAL4-LBD luciferase reporter in HEK-293 cells). Format: cell-based.
Description: The following procedure was used for in vitro determination of PPARα, γ and δ transactivation.
as §1

A further data set relates to Male Swiss albino mice. The data set can be described thus: plasma triglyceride lowering in Swiss albino mice. It is filed as in vivo. The following applies: plasma triglycerides. Here is the method:
Male Swiss albino mice (SAM) were obtained from National Institute Nutrition (NIN, Hyderabad, India) and housed in Dr. Reddy's Laboratories Ltd (DRL) animal house. All these animals were maintained under 12 hour light and dark cycle at 25±1° C. Animals were given standard laboratory chow (NIN, Hyderabad, India) and water, ad libitum. Mice of 20-25 grams body weight range were used. See Olivier, et al., Atherosclerosis, 1988, 70:107-114, incorporated herein by reference in its entirety. The test compounds were administered orally to mice at the doses shown in the following in table for 6 days. […] After centrifugation, plasma was separated for plasma triglyceride and total cholesterol measurement. See Wieland, Methods of Enzymatic Analysis, Bergermeyer, ed., 1963, 211-214; Trinder, Ann. Clin. Biochenz., 1969, 6:24-27, incorporated herein by reference in their entireties. Measurement of cholesterol and plasma triglyceride was done using a […] autoanalyser (Merck). The percent reductions in plasma triglycerides (TG)/total cholesterol were calculated according to the following formula: [formula] OC=Zero day control group value OT=Zero day treated group value TC=Test day control group value TT=Test day treated group value.

The subject of data set [1] is hypercholesterolemic Male Sprague Dawley rats. The data set is described as follows: lipid lowering in hypercholesterolemic Sprague Dawley rats. It is filed as in vivo. The following applies: hypercholesterolemic SD rats, 3 mg/kg orally for 3 days. Here is the method: Male Sprague Dawley rats (NIN stock) were bred in DRL animal house. Animals were maintained under 12 hour light and dark cycle at 25±1° C. Rats of 180-200 gram body weight range were used for the experiment. Animals were made hypercholesterolemic by feeding 2% cholesterol and 1% sodium cholate mixed with standard laboratory chow (NIN) for 6 days. Throughout the experimental period the animals were maintained on the same diet. Control rats were treated with vehicle alone (0.25% CMC; 10 ml/kg). Blood samples were collected in fed state 1 hour after drug administration on 0 and 3 days of treatment from the retro-orbital sinus through heparinized capillary tubes containing EDTA. After centrifugation, plasma sample was separated for total cholesterol, HDL and plasma triglyceride measurement. Measurement of total cholesterol, HDL and plasma triglyceride was done using a Vitalab Selectra autoanalyser (Merck). HDL was measured using a commercial kit. LDL and VLDL cholesterol were calculated from the data obtained for total cholesterol, HDL and plasma triglyceride.
The percent reductions in plasma triglycerides (TG)/total cholesterol (TC) were calculated as described in Example 55. The levels of LDL and VLDL cholesterol were calculated according to the following formulas: LDL cholesterol in mg/dl=[Total cholesterol−HDL cholesterol−Triglyceride/5] VLDL cholesterol in mg/dl=[Total cholesterol−HDL cholesterol−LDL cholesterol]

Several values for one entry are separate records, joined by “and”; a condition that tells them apart may be missing. Equal values may be shown once.

The term melting point denotes the temperature, or range, at which the solid turns liquid. The compound `CCOC(=O)C1(Oc2ccc(OCc3cc(-c4ccccc4)no3)cc2)CCCC1` [Example 2] yielded a melting point of 83 to 85 °C. Besides, at human PPARα (1 μM), the “PPARα luciferase fold activation relative to untreated cells” value is 1.2. The “PPARα luciferase fold activation relative to untreated cells” value on human PPARα (10 μM) amounted to 1.0. Also, the “PPARα luciferase fold activation relative to untreated cells” value on human PPARα (50 μM) was 1.0. The “PPARγ luciferase fold activation relative to untreated cells” value on human PPARγ1 (1 μM) came out at 1.4. At human PPARγ1 (10 μM), the “PPARγ luciferase fold activation relative to untreated cells” value is given as 2.4. For the same compound, on human PPARγ1 (50 μM), the “PPARγ luciferase fold activation relative to untreated cells” value is reported as 2.4.
Take `CCC(C)(Oc1ccc(OCc2cc(-c3ccc(OCc4ccccc4)cc3)no2)cc1)C(=O)O` (stereo not drawn) [Example 3]: the melting point lay in the range of 132 to 134 °C.
On the same count and under the same terms, the result for `CCC(C)(Oc1ccc(OCc2cc(-c3ccc(O)cc3)no2)cc1)C(=O)O` (stereo not drawn) [Example 4] reads 142 to 144 °C.
In the case of `CCC(C)(Oc1ccc(OCc2cc(-c3ccccc3)no2)cc1)C(=O)O` (stereo not drawn) [Example 8], the melting point fell in the range of 70 to 74 °C. Besides, the “PPARα luciferase fold activation relative to untreated cells” value at human PPARα (1 μM) amounted to 1.3. Moreover, the “PPARα luciferase fold activation relative to untreated cells” value at human PPARα (10 μM) came out at 2.6. In addition, the “PPARα luciferase fold activation relative to untreated cells” value on human PPARα (50 μM) is listed as 3.5. Moreover, on human PPARγ1 (1 μM), the “PPARγ luciferase fold activation relative to untreated cells” value was 0.5. For the same compound, the “PPARγ luciferase fold activation relative to untreated cells” value at human PPARγ1 (10 μM) turned out to be 1.2. Also, on human PPARγ1 (50 μM), the “PPARγ luciferase fold activation relative to untreated cells” value is recorded as 4.1. The “% reduction in TG” value in the data set with Male Swiss albino mice (3 mg/kg orally for 6 days) came to 52%.
As to `O=C(O)C1(Oc2ccc(OCc3cc(-c4ccccc4)no3)cc2)CCCC1` [Example 9], the melting point was 135 to 137 °C. Further, the “PPARα luciferase fold activation relative to untreated cells” value on human PPARα (1 μM) amounted to 0.8. Also, the “PPARα luciferase fold activation relative to untreated cells” value on human PPARα (10 μM) worked out at 1.2. For the same compound, the “PPARα luciferase fold activation relative to untreated cells” value on human PPARα (50 μM) came to 1.7. For the same compound, the “PPARγ luciferase fold activation relative to untreated cells” value on human PPARγ1 (1 μM) turned out to be 1.2. Further, the “PPARγ luciferase fold activation relative to untreated cells” value on human PPARγ1 (10 μM) is 0.9. Besides, the “PPARγ luciferase fold activation relative to untreated cells” value at human PPARγ1 (50 μM) was determined as 2.4.
`CC(C)(Oc1ccc(OCc2cc(-c3ccc(C(F)(F)F)cc3)no2)cc1)C(=O)O` [Example 12]: the melting point was 166 to 168 °C.
`Cc1cc(SCc2cc(-c3ccc(C(F)(F)F)cc3)no2)ccc1OC(C)(C)C(=O)O` [Example 13] returned a melting point of 106 to 108 °C.
On to `CC(C)(Sc1ccc(OCc2cc(-c3ccc(C(F)(F)F)cc3)no2)cc1)C(=O)O` [Example 14], for which the melting point lay in the range of 120 to 122 °C.
Still for that read-out and setting: under `CC[C@@](C)(Oc1ccc(OCCCc2cc(-c3ccccc3)no2)cc1)C(=O)O` [Example 15] stands 105 to 108 °C; under `CC[C@](C)(Oc1ccc(OCCCc2cc(-c3ccccc3)no2)cc1)C(=O)O` [Example 16], 121 to 122 °C.
Regarding `CC(C)(Oc1ccc(OCc2cc(-c3ccc(-c4ccccc4)cc3)no2)cc1)C(=O)O` [Example 18], the melting point was 168 to 170 °C.
For the compound `CCC(C)(Oc1ccc(OCc2cc(-c3ccc(-c4ccccc4)cc3)no2)cc1)C(=O)O` (stereo not drawn) [Example 19], the melting point lay within 188 to 190 °C.
Take `CCC(C)(Oc1ccc(OC/C=C/c2cc(-c3ccccc3)no2)cc1)C(=O)O` (stereo not drawn) [Example 20]: the melting point lay in the range of 118 to 120 °C.
The same measure, in the same setting: under `CCC(C)(Oc1ccc(OCCCc2cc(-c3ccc(C(F)(F)F)cc3)no2)cc1)C(=O)O` (stereo not drawn) [Example 21] stands 110 to 112 °C.
`CCC(C)(Oc1ccc(OCc2cc(-c3ccc([N+](=O)[O-])cc3)no2)cc1)C(=O)O` (stereo not drawn) [Example 22] had a melting point of 128 to 130 °C.
The same measure, in the same setting: the result for `CCC(C)(Oc1ccc(OCc2cc(-c3ccc(F)cc3)no2)cc1)C(=O)O` (stereo not drawn) [Example 23] reads 118 to 120 °C.
Turning to `CC[C@@](C)(Oc1ccc(OCc2cc(-c3ccc(OS(C)(=O)=O)cc3)no2)cc1)C(=O)O` [Example 26], the “PPARα luciferase fold activation relative to untreated cells” value was 1.8 on human PPARα (1 μM), 5.7 on human PPARα (10 μM) and 5.8 at human PPARα (50 μM). Also, the “PPARγ luciferase fold activation relative to untreated cells” value at human PPARγ1 (1 μM) is reported as 0.1; at human PPARγ1 (10 μM), 1.0; at human PPARγ1 (50 μM), 5.3. The “% reduction in TG” value in the data set with Male Swiss albino mice (1 mg/kg orally for 6 days) was determined as 50%.
`CCC(C)(Oc1ccc(OCc2cc(-c3ccc(C)cc3)no2)cc1)C(=O)OC` (stereo not drawn) [Example 29, 2-Methyl-2-[4-(3-(4-methylphenyl)isoxazol-5-ylmethoxy)phenoxy]butyric acid, methyl ester]: the melting point is 100 to 102 °C.
In the case of `CCC(C)(Oc1ccc(OCc2cc(-c3ccc(C)cc3)no2)cc1)C(=O)O` (stereo not drawn) [Example 30, 2-Methyl-2-[4-(3-(4-methylphenyl)isoxazol-5-ylmethoxy)phenoxy]butyric acid], the melting point fell in the range of 138 to 140 °C.
Regarding `CCC(C)(Oc1ccc(OCCCc2cc(-c3ccc(C)cc3)no2)cc1)C(=O)O` (stereo not drawn) [Example 32, 2-Methyl-2-{4-[3-(3-(4-methylphenyl)isoxazol-5-yl)propoxy]phenoxy}butyric acid], the melting point was in the range of 98 to 100 °C.
Consider `CCC(C)(Oc1ccc(OCCCc2cc(-c3ccc(Cl)cc3)no2)cc1)C(=O)O` (stereo not drawn) [Example 34, 2-Methyl-2-{4-[3-(3-(4-chlorophenyl)isoxazol-5-yl)propoxy]phenoxy}butyric acid], for which the melting point is 130 to 132 °C.
Take `O=C(O)[C@]1(Cc2ccc(OCc3cc(-c4ccc(C(F)(F)F)cc4)no3)cc2)CCCO1` [Example 37]: the “% reduction in TG” value with Male Swiss albino mice (3 mg/kg orally for 6 days) is 69%. For the same compound, the “% Reduction TG” value in data set [1] (plasma triglycerides) came out at 68%. Also, the “% Reduction TC” value in data set [1] (total cholesterol) was found to be 69%. Further, in data set [1] (LDL cholesterol calculated from TC, HDL, TG), the “% Reduction LDL” value is given as 75%. In data set [1] (values represent % increase), this compound gave an HDL % increase of 138%.
As for `O=C(O)C1(Cc2ccc(OCc3cc(-c4ccccc4)no3)cc2)CCCO1` (stereo not drawn) [Example 39], the “PPARα luciferase fold activation relative to untreated cells” value on human PPARα (1 μM) is 1.1 (1.1); on human PPARα (10 μM), 3.9; on human PPARα (50 μM), 4.7. Moreover, the “PPARγ luciferase fold activation relative to untreated cells” value stood at 1.8 on human PPARγ1 (1 μM), 3.9 at human PPARγ1 (10 μM) and 9.0 at human PPARγ1 (50 μM). In addition, the “% reduction in TG” value in the data set on Male Swiss albino mice (3 mg/kg orally for 6 days) was determined as 44%.
Regarding `Cc1cccc(Nc2cc(Cl)nc(SCC(=O)O)n2)c1C` [Wyeth 14643, reference compound], the “PPARα luciferase fold activation relative to untreated cells” value at human PPARα (10 μM) was 1.7 and 1.6 and 1.4 and 2.5 and 2.7 and 2.4; at human PPARα (50 μM) it was 3.4 and 5.0 and 4.2 and 5.2 and 4.1 and 6.1 and 4.6 and 4.0.
